pEC50, pIC50: −log10 of the molar value. Where two headings read alike, the source gives them in different places.
Tests used:
HIV-1 IN = HIV-1 IN (Human immunodeficiency virus type 1 group M subtype B, UniProt P12497); test: biochemical
MT-2 cells = settings: 48 hours
From the text: The chemical structures of the compounds are illustrated in FIGS. 1-4. In FIG. 1a, the D- and meso-isomers of L-chicoric acid are identical in this illustrative format. […] The first compound in Table 1, L-chicoric acid, a previously described DCTA, is included for reference. LD5, the 5% lethal dose, is a measure of the toxicity of compound to living, cultured cells. It is the concentration at which cell growth is inhibited by 5%. […] Most simply understood, disintegration is a term used to refer to the reverse of integration.
Cell toxicity and anti-HIV assays were performed as reported above. […] Cells were incubated with drug for 48 hours at 37° C., then harvested for cell viability in a neutral red dye assay as described.

HIVLAI = test: Anti-HIV assay, protection from HIV-induced cell death; format: cell-based; settings: read-out: ED50 (concentration that inhibits HIV-induced cell death by 50%)
Description: Anti-HIV assays were performed as described above. […] The compounds were then two-fold serially diluted in triplicate. To each 50 μl of diluted compound, 50 μl of HIVLAI was added and the virus-drug mixture was incubated for 1 hr at 37° C. […] Final multiplicity of infection (MOI) was 1-5. Cells were harvested to quantitate cytopathic effect using a neutral red dye assay as described.

HIV-1NL4-3clone1-D4 = format: cell-based
Description: (§1) Cloning and sequencing of virus from the HIVNL4-3 passaged in the presence of 8 μM L-chicoric acid was undertaken to determine the molecular basis for resistance to L-chicoric acid and to isolate a resistant HIV clone.
This cloning was accomplished through site-directed mutagenesis introducing several silent mutations immediately upstream and downstream of the integrase gene. These mutations generated two unique restriction sites: an upstream SacII and a downstream XbaI (FIG. 15). Introduction of these mutations allowed the entire integrase gene with only minimal upstream and downstream nucleotides to be digested and “swapped” between drug-resistant and drug-sensitive clones.

HIV-1NL4-3 = test: Anti-HIV cytopathicity assay against parental molecular clone; format: cell-based; settings: mean of triplicate infections; read-out: ED50 HIVNL4-3
Description: as §1
Assays, as described above, to determine the ED50 for a given compound against the molecular clone HIVNL4-3clone1-D4 and the parental clone HIVNL4-3 give an indication of the selectivity of the compound for inhibition of HIV replication through IN. Resistance to a compound, as measured by an increased ED50, by clone HIVNL4-3clone1-D4, implies selectivity of the compound for IN. Thus clone HIVNL4-3clone1-D4 can be used to screen candidate IN inhibitors for selectivity.

[1] = Human immunodeficiency virus 1, MT2, 72 h

| SMILES | pIC50 (HIV-1 IN) | LD5 (5% lethal dose, concentration at which cell growth is inhibited by 5%) (MT-2 cells) | pEC50 (HIVLAI; [1]) | Fold Change (ED50 resistant clone vs HIVNL4-3) (HIV-1NL4-3clone1-D4; HIVNL4-3clone1-D4 vs HIVNL4-3) | efficacy against the L-chicoric acid resistant clone (HIV-1NL4-3clone1-D4; compared with parental HIVNL4-3) | pEC50 (HIV-1NL4-3clone1-D4; mean of triplicate infections, read-out: ED50 HIVNL4-3clone1-D4) | pEC50 (HIV-1NL4-3) | pEC50 (HIVLAI; HIVLAI, MT-2 cells, 72 hr) |
| --- | --- | --- | --- | --- | --- | --- | --- | --- |
| O=C(O)C(=Cc1ccc(O)c(O)c1)C(=Cc1ccc(O)c(O)c1)C(=O)O [Compound 37, Di-3,4-dihydroxybenzylidene succinic acid] | 5.66 | 35 µM | 5.06 | – | – | – | – | – |
| O=C(O[C@@H](C(=O)O)[C@@H](OC(=O)c1cc(O)c(O)c(O)c1)C(=O)O)c1cc(O)c(O)c(O)c1 [Compound 25] | – | 2.7 µM | – | 107 | reduced efficacy | 4.51 | 6.54 | 6.18 |
| O=C(C=Cc1ccc(O)c(O)c1)NCC(OC(=O)C=Cc1ccc(O)c(O)c1)C(=O)O [Compound 40, Bis-dicaffeoyl-L-isoserine] | 6.71 | 175 µM | 5.52 | – | – | – | – | – |
| O=C(C=Cc1ccc(O)c(O)c1)Nc1ccc(C(=O)O)cc1NC(=O)C=Cc1ccc(O)c(O)c1 [Compound 36, Bis-3,4-dicaffeoyldiamidobenzoic acid] | 6.13 | 47 µM | 5.34 | – | – | – | – | – |
| O=C(C=Cc1ccc(O)c(O)c1)NCCCCC(NC(=O)C=Cc1ccc(O)c(O)c1)C(=O)O [Compound 41, 1,4-dicaffeoyl-L-lysine] | 5.65 | 29.2 µM | 5.43 | – | – | – | – | – |
| O=C(/C=C/c1ccc(O)c(O)c1)OC[C@H](OC(=O)/C=C/c1ccc(O)c(O)c1)C(=O)O [Compound 19, Dicaffeoyl-L-glyceric acid] | 6.28 | 145 µM | 5.64 | – | – | – | – | – |

— US20050049242A1 (priority 2000, published 2005)
